Experimental data: publication PMC4552634, “A New Set of Chemical Starting Points with Plasmodium falciparum Transmission-Blocking Potential for Antimalarial Drug Discovery” (PLoS ONE, 2015)
Where two headings read alike, the source gives them in different places.

Tests used:
[1] = tested on: P. falciparum stage V gametocytes; assay: Gametocytocidal ATP bioluminescence assay (single point 5 μM and 1 μM, dose-response); assay type: cell-based, Plasmodium falciparum; conditions: for Ratio IC50 HepG2/IC50 P. falciparum: IC50 HepG2 divided by IC50 P. falciparum gametocytes
Description: Purified stage IV-V gametocytes were obtained as previously described [10]. Single point ATP bioluminescence assay and dose–response of positive hits was determined in accordance with the previously published protocol [10].

[2] = tested on: luciferase reaction (BacTiter-Glo); assay: Interference assay (inhibition of the BacTiter-Glo luciferase reaction); assay type: biochemical; design: concentration or dose not given beside the values; conditions: ATP interference assay
Description: To discard possible false-positive results, we performed an interference assay in parallel. […] […]. The ATP solution was made by dissolving ATP powder (ATP standard from the ATPlite 1 step assay kit, reference 6016731, Perkin Elmer) in culture medium. The positive control used was the Luciferase Inhibitor I Calbiochem (Merck, 119113) at 100 μM.

[3] = Cytotoxicity in HepG2 cells (intracellular ATP, ATPlite, 48 h); assay type: cell-based, human; conditions: human, HepG2 cells
[4] = tested on: HepG2 cells; assay: as above; assay type: cell-based, human; conditions: IC50 HepG2 divided by IC50 P. falciparum gametocytes
[5] = tested on: P. falciparum asexual stages; conditions: TCAMS data, cited from earlier work
[6] = Plasmodium falciparum, P. falciparum gametocytes, average, read-out: IC50 Pf Gametocytes average, IC50 (µM) average
[7] = Plasmodium falciparum, sexual stages (gametocytes), dose-response, read-out: IC50 sexual
[8] = IC50 per ratio column head, unit inferred, read-out: Cytotoxicity in HepG2
[9] = P. falciparum asexual stages, read-out: IC50 (µM) Pf asexual stages
[10] = asexual stages, read-out: IC50 asexual
[11] = sexual stages (gametocytes), dose-response, read-out: IC50 sexual
[12] = HepG2, 48 h exposure, intracellular ATP, read-out: IC50 (μM) Cytotoxicity HepG2

## C=CCN(C(=O)c1ccc(Cl)c([N+](=O)[O-])c1)c1nc(-c2ccccc2)cs1 [TCMDC-124436]
[1]
  Ratio IC50 HepG2/IC50 P. falciparum: >237
[1]; [6]
  IC50: 0.11 µM
[1]; [7]
  IC50: 0.105 µM
[2]
  % Control luminiscence: 100%
[3]; [8]
  IC50 at 48 h: > 25 µM
[4]
  Ratio IC50 HepG2/IC50 P. falciparum: >237
[5]; [9]
  IC50: 0.4 µM
[5]; [10]
  IC50: 0.398 µM

## Cc1cc(Nc2ccncc2)n2nc(C)c(-c3ccccc3Cl)c2n1 [TCMDC-124918]
[1]
  Ratio IC50 HepG2/IC50 P. falciparum: >13
[1]; [6]
  IC50: 1.94 µM
[1]; [7]
  IC50: 1.94 µM
[2]
  % Control luminiscence: 100%
[3]; [8]
  IC50 at 48 h: > 25 µM
[4]
  Ratio IC50 HepG2/IC50 P. falciparum: >13
[5]; [9]
  IC50: 0.65 µM
[5]; [10]
  IC50: 0.654 µM

## CCc1nn2c(Nc3ccncc3)cc(C)nc2c1-c1ccccc1 [TCMDC-124917]
[1]
  Ratio IC50 HepG2/IC50 P. falciparum: >13
[1]; [6]
  IC50: 1.9 µM
[1]; [7]
  IC50: 1.9 µM
[2]
  % Control luminiscence: 93%
[3]; [8]
  IC50 at 48 h: > 25 µM
[4]
  Ratio IC50 HepG2/IC50 P. falciparum: >13
[5]; [9]
  IC50: 0.2 µM
[5]; [10]
  IC50: 0.203 µM

## CCCCCCCN1CC[C@@H](CCCc2ccnc3ccc(OCCCCNC(N)=NO)cc23)[C@@H](CC)C1 [TCMDC-139839]
[1]
  Ratio IC50 HepG2/IC50 P. falciparum: 36
[1]; [6]
  IC50: 0.47 µM
[1]; [11]
  IC50: 0.473 µM
[2]
  % Control luminiscence: 100%
[3]; [8]
  IC50 at 48 h: 17.2 µM
[4]
  Ratio IC50 HepG2/IC50 P. falciparum: 36
[5]; [10]
  IC50: 0.952 µM

## COCCCNC(=S)NN=C(C)c1ccccn1 [TCMDC-137907]
[1]
  Ratio IC50 HepG2/IC50 P. falciparum: 106
[1]; [6]
  IC50: 0.16 µM
[2]
  % Control luminiscence: 100%
[3]; [8]
  IC50 at 48 h: 17 µM
[4]
  Ratio IC50 HepG2/IC50 P. falciparum: 106
[5]; [9]
  IC50: 0.3 µM
[5]; [10]
  IC50: 0.296 µM

## CCN(CC)CCN(Cc1ccc(-c2ccc(C(F)(F)F)cc2)cc1)C(=O)Cn1cc(Cc2cnn(C)c2)c(=O)nc1/C=C/c1cccc(F)c1F [TCMDC-140964]
[1]
  Ratio IC50 HepG2/IC50 P. falciparum: 83
[1]; [6]
  IC50: 0.17 µM
[1]; [11]
  IC50: 0.173 µM
[2]
  % Control luminiscence: 100%
[3]; [8]
  IC50 at 48 h: 14.4 µM
[4]
  Ratio IC50 HepG2/IC50 P. falciparum: 83
[5]; [10]
  IC50: 0.957 µM

## CCCCN1CCN(CCCCNc2c3ccccc3nc3ccccc23)CC1 [TCMDC-137569]
[1]
  Ratio IC50 HepG2/IC50 P. falciparum: 11
[1]; [6]
  IC50: 1.19 µM
[2]
  % Control luminiscence: 100%
[3]; [12]
  IC50 at 48 h: 13 µM
[3]; [8]
  IC50 at 48 h: 12.7 µM
[4]
  Ratio IC50 HepG2/IC50 P. falciparum: 11
[5]; [9]
  IC50: 0.17 µM
[5]; [10]
  IC50: 0.167 µM

## COc1cccc(CC(=O)N2CCC(n3c(C)nc4ccc(C)cc43)CC2)c1 [TCMDC-124791]
[1]
  Ratio IC50 HepG2/IC50 P. falciparum: >53
[1]; [6]
  IC50: 0.47 µM
[2]
  % Control luminiscence: 100%
[3]; [8]
  IC50 at 48 h: > 25 µM
[4]
  Ratio IC50 HepG2/IC50 P. falciparum: >53
[5]; [9]
  IC50: 0.11 µM
[5]; [10]
  IC50: 0.114 µM

## COc1ccc(CNCc2ccc(F)cc2)cc1-c1ccc(OC)c(S(=O)(=O)NCCN2CCCC2)c1 [TCMDC-132295]
[1]
  Ratio IC50 HepG2/IC50 P. falciparum: 16
[1]; [6]
  IC50: 0.72 µM
[1]; [11]
  IC50: 0.717 µM
[2]
  % Control luminiscence: 99%
[3]; [8]
  IC50 at 48 h: 11.4 µM
[4]
  Ratio IC50 HepG2/IC50 P. falciparum: 16
[5]; [10]
  IC50: 0.786 µM

## Fc1ccc(NC(=S)NN=Cc2ccccn2)cc1 [TCMDC-125521]
[1]
  Ratio IC50 HepG2/IC50 P. falciparum: 195
[1]; [6]
  IC50: 0.12 µM
[2]
  % Control luminiscence: 100%
[3]; [12]
  IC50 at 48 h: 23 µM
[3]; [8]
  IC50 at 48 h: 23.4 µM
[4]
  Ratio IC50 HepG2/IC50 P. falciparum: 195
[5]; [9]
  IC50: 0.77 µM
[5]; [10]
  IC50: 0.775 µM

## CN(C)CCNC(=O)c1ccc(-c2cnc3ccc(NCc4ccc(Cl)c(Cl)c4)nn23)cc1 [TCMDC-136678]
[1]
  Ratio IC50 HepG2/IC50 P. falciparum: 50
[1]; [6]
  IC50: 0.33 µM
[1]; [7]
  IC50: 0.333 µM
[2]
  % Control luminiscence: 100%
[3]; [12]
  IC50 at 48 h: 17 µM
[3]; [8]
  IC50 at 48 h: 16.7 µM
[4]
  Ratio IC50 HepG2/IC50 P. falciparum: 50
[5]; [9]
  IC50: 0.91 µM
[5]; [10]
  IC50: 0.913 µM

## Cc1n[nH]c2ccc(-c3ccc4nccc(N5CCC(N)CC5)c4c3)cc12 [TCMDC-134315]
[1]
  Ratio IC50 HepG2/IC50 P. falciparum: 30
[1]; [6]
  IC50: 0.38 µM
[1]; [7]
  IC50: 0.383 µM
[2]
  % Control luminiscence: 100%
[3]; [12]
  IC50 at 48 h: 12 µM
[3]; [8]
  IC50 at 48 h: 11.7 µM
[4]
  Ratio IC50 HepG2/IC50 P. falciparum: 30
[5]; [9]
  IC50: 0.59 µM
[5]; [10]
  IC50: 0.591 µM

## COc1cc2nc(N3CCN(c4nc(N)c5cc(OC)c(OC)cc5n4)CC3)nc(N)c2cc1OC [TCMDC-123865]
[1]
  Ratio IC50 HepG2/IC50 P. falciparum: >96
[1]; [6]
  IC50: 0.26 µM
[2]
  % Control luminiscence: 100%
[3]; [8]
  IC50 at 48 h: > 25 µM
[4]
  Ratio IC50 HepG2/IC50 P. falciparum: >96
[5]; [9]
  IC50: 0.15 µM
[5]; [10]
  IC50: 0.146 µM
